Experimental data from patent US12319708B2, “Agonists of peroxisome proliferator-activated receptor alpha (PPARα) and methods of use” (The Board of Regents of the University of Oklahoma, priority 2018, dated 2025).
Read-outs that look alike come from different tables or passages of the source.

Target: T1, hPPARα (Homo sapiens, UniProt Q07869)
T1 sequence (Q07869 1-468): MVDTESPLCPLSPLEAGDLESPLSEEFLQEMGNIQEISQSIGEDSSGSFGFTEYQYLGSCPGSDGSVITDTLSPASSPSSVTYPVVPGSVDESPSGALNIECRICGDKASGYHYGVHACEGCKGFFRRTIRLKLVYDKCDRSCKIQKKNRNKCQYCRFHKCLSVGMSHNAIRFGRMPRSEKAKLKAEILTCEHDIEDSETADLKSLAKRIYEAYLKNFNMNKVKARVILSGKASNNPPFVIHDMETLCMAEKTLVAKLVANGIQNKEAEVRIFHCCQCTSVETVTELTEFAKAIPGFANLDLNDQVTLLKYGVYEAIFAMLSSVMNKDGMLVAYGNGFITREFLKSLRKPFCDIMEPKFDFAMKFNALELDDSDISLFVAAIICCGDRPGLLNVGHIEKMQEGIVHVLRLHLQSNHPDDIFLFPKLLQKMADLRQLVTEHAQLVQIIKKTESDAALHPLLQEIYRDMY
Test: PPARα luciferase cell reporter assay (Indigo Biosciences)
Assay type: cell-based
Conditions: for ratio (5/50): ratio of relative light unit (RLU) signal at 5 and 50 μM: 5 and 50 μM compound concentrations; for fold-signal: ratio of maximal signal strength to that obtained with GW590735: relative to GW590735
Description: With the focused subset of analogs in-hand, our efforts shifted to the evaluation of these derivatives for PPARα agonism. Preliminary evaluation utilized a commercially available PPARα luciferase cell reporter assay (Indigo Biosciences). The cell-line employed is engineered to constitutively express high-levels of hPPARα. Upon interaction with an agonist, hPPARα translocates to the nucleus, binds to the PPRE, and upregulates gene transcription, including the inserted luciferase gene. Luciferase activity is detected indirectly through quantification of oxyluciferin production.

[1] = mean ± SEM of at least two separate experiments in triplicate (Table 9), read-out: EC50 hPPARα
[2] = structure IIa compounds (Table 6)
[3] = Table 6, cellular luciferase activity, read-out: α EC50
[4] = structure IIb compounds (Table 8)

SMILES | Fold (5 μM): fold increase in luciferase compared to DMSO negative control [2] [fold] | Fold (50 μM): fold increase in luciferase compared to DMSO negative control [2] [fold] | further results
Cc1cc(CNc2cccc(C(=O)O)c2)ccc1OCc1cc(F)cc(F)c1 [25′] |  |  | ratio (5/50): ratio of relative light unit (RLU) signal at 5 and 50 μM: 1.1; fold-signal: ratio of maximal signal strength to that obtained with GW590735: 1.6
O=C(O)c1cccc(NCc2ccc(OCc3ccc(F)cc3)c(F)c2)c1 [26′] |  |  | ratio (5/50): ratio of relative light unit (RLU) signal at 5 and 50 μM: 0.7; fold-signal: ratio of maximal signal strength to that obtained with GW590735: 1.7
O=C(O)c1cccc(NCc2ccc(OCc3ccc(F)cc3)c(Cl)c2)c1 [27′] |  |  | ratio (5/50): ratio of relative light unit (RLU) signal at 5 and 50 μM: 1.1; fold-signal: ratio of maximal signal strength to that obtained with GW590735: 1.5
Cc1cc(CN(C)c2cccc(C(=O)O)c2)ccc1OCc1ccc(F)cc1 [30′] |  |  | ratio (5/50): ratio of relative light unit (RLU) signal at 5 and 50 μM: 0.8; EC50 [1]: 0.067 ± 0.01 µM; fold-signal: ratio of maximal signal strength to that obtained with GW590735: 2.1
O=C(O)c1cc(F)cc(NCc2ccc(OCc3ccc(F)cc3)c(Cl)c2)c1 [32′] |  |  | ratio (5/50): ratio of relative light unit (RLU) signal at 5 and 50 μM: 1.1; EC50 [1]: 0.052 ± 0.011 µM; fold-signal: ratio of maximal signal strength to that obtained with GW590735: 1.8
COc1ccc(COc2ccc(CNc3cccc(B(O)O)c3)cc2)cc1 [Compound 110] | 1 | 1 | 
CC(C)(Oc1cccc(NCc2ccc(OCc3ccccc3)cc2)c1)C(=O)O [Compound 116] | 1 | 46 | 
O=C(O)c1cccc(NCc2ccc(OCc3ccccc3)cc2)c1 [Compound 117] | 18 | 35 | 
O=C(O)c1cccc(NCc2ccc(OCc3ccc(Cl)cc3Cl)cc2)c1 [Compound 118] | 1 | 37 | 
O=C(O)c1cccc(NCc2ccc(OCc3cc(F)cc(F)c3)cc2)c1 [Compound 119] | 9 | 35 | 
O=C(O)c1cccc(NCc2ccc(OCc3ccc([N+](=O)[O-])cc3)cc2)c1 [Compound 120] | 16 | 35 | 
CC(C)(Oc1cccc(NCc2ccc(OCc3cc(F)cc(F)c3)cc2)c1)C(=O)O [Compound 121] | 16 | 42 | 
O=C(O)c1cccc(NCc2ccc(OCc3ccc(Cl)cc3)cc2)c1 [Compound 122] | 17 | 36 | 
CC(C)(Oc1cccc(NCc2ccc(OCc3ccc(Cl)cc3)cc2)c1)C(=O)O [Compound 123] | 2 | 55 | 
O=C(O)c1cccc(NCc2ccc(OCc3ccc(C(F)(F)F)cc3)cc2)c1 [Compound 126] | 81 | 100 | EC50 [3]: 0.8 µM
CC(C)(Oc1cccc(NCc2ccc(OCc3ccc(F)cc3)cc2)c1)C(=O)O [Compound 127] | 11 | 150 | 
CC(C)(Oc1cccc(NCc2ccc(OCc3ccc(C(F)(F)F)cc3)cc2)c1)C(=O)O [Compound 128] | 19 | 106 | 
O=C(O)c1ccc(NCc2ccc(OCc3ccc(C(F)(F)F)cc3)cc2)cc1 [Compound 155] |  |  | Fold (5 μM): fold increase in luciferase compared to DMSO negative control [4]: 4 fold; Fold (50 μM): fold increase in luciferase compared to DMSO negative control [4]: 8 fold
COc1ccc(COc2ccc(CNc3ccc(C(=O)O)cc3)cc2)cc1 [Compound 162] |  |  | Fold (5 μM): fold increase in luciferase compared to DMSO negative control [4]: 4 fold; Fold (50 μM): fold increase in luciferase compared to DMSO negative control [4]: 29 fold
CC(C)(Oc1ccc(NCc2ccc(OCc3ccc(F)cc3)cc2)cc1)C(=O)O [Compound 182] |  |  | Fold (5 μM): fold increase in luciferase compared to DMSO negative control [4]: 40 fold; Fold (50 μM): fold increase in luciferase compared to DMSO negative control [4]: 74 fold
O=C(O)c1ccc(NCc2ccc(OCc3ccc(F)cc3)cc2)cc1 [Compound 183] |  |  | Fold (5 μM): fold increase in luciferase compared to DMSO negative control [4]: 4 fold; Fold (50 μM): fold increase in luciferase compared to DMSO negative control [4]: 14 fold

More lines, main results first:

Fold (5 μM): fold increase in luciferase compared to DMSO negative control [2] [fold] | Fold (50 μM): fold increase in luciferase compared to DMSO negative control [2] [fold] | SMILES | further results
2 | 112 | O=C(O)COc1cccc(NCc2ccc(OCc3ccc(C(F)(F)F)cc3)cc2)c1 [Compound 129] | 
2 | 43 | COc1ccc(COc2ccc(CNc3cccc(OCC(=O)O)c3)cc2)cc1 [Compound 130] | EC50 [3]: 29.2 µM
1 | 0 | O=C(O)c1cccc(NCCc2ccc(OCCc3ccccc3)cc2)c1 [Compound 133] | 
3 | 9 | COc1ccc(COc2ccc(CNc3cccc(C(=O)NO)c3)cc2)cc1 [Compound 134] | 
3 | 5 | CS(=O)(=O)Nc1cccc(NCc2ccc(OCc3ccc(F)cc3)cc2)c1 [Compound 145] | 
34 | 53 | O=C(NO)c1cccc(NCc2ccc(OCc3ccc(F)cc3)cc2)c1 [Compound 146] | 
3 | 3 | NS(=O)(=O)c1cccc(NCc2ccc(OCc3ccc(F)cc3)cc2)c1 [Compound 147] | 
73 | 85 | Fc1ccc(COc2ccc(CNc3cccc(-c4nnn[nH]4)c3)cc2)cc1 [Compound 148] | EC50 [3]: 5.7 µM
102 | 109 | CN(Cc1ccc(OCc2ccc(F)cc2)cc1)c1cccc(C(=O)O)c1 [Compound 151] | EC50 [3]: 1 µM
94 | 120 | CN(Cc1ccc(OCc2ccc(F)cc2)cc1)c1cccc(OC(C)(C)C(=O)O)c1 [Compound 153] | EC50 [3]: 1.7 µM
3 | 2 | OB(O)c1cccc(NCc2ccc(OCc3ccc(F)cc3)cc2)c1 [Compound 154] | 
18 | 93 | O=C(O)c1cc(Cl)cc(NCc2ccc(OCc3ccc(F)cc3)cc2)c1 [Compound 168] | 
59 | 69 | O=C(O)c1cc(Br)cc(NCc2ccc(OCc3ccc(F)cc3)cc2)c1 [Compound 184] | EC50 [3]: 0.9 µM
